Key:
[1] = Water solubility at 25° C. of zoledronic acid-HPβCD complexes and zoledronic acid monohydrate; assay type: physicochemical
Text: Solubility data of Examples 1-5 and Zoledronic Acid Monohydrate

[2] = cited from earlier work
[3] = cited from earlier work; remark: listed apart in the source

For O=P(O)(O)C(O)(Cn1ccnc1)P(=O)(O)O [Zoledronic acid monohydrate, zoledronic acid monohydrate], the solubility [1] was less than 7000 µg/mL.
For O=P(O)(O)C(O)(Cn1ccnc1)P(=O)(O)O [zoledronic acid], the “water solubility (in words)” value [2] is listed as “sparingly water-soluble”.
For hydroxypropyl-β-cyclodextrin [HPβCD], the solubility in water ([2]; room temperature) is listed as “greater than 500 mg/ml” and the “adverse effects in human studies” value [3] is listed as “no adverse effects are observed”.

Reference: US20090023683A1, “COMPLEXES COMPRISING ZOLEDRONIC ACID AND CYCLODEXTRINS” (priority 2007, published 2009)
